In patent US9255132B2, “Angiopoietin derived peptides” (Compugen Ltd., priority 2008, dated 2016):
Residues, ends and D or L forms follow the SMILES beside them.

Biological target: T1, recombinant human Tie-2/Fc chimera (Homo sapiens, UniProt Q02763)
T1 construct: purchased R&D Systems 313-TI
Test: BIACORE (SPR) direct binding of peptides to immobilized Tie2
Details: 10-50 μM peptide
Source text: The capability of CGEN-G6 [SEQ ID NO: 6], CGEN-F9 [SEQ ID NO: 7], CGEN-C6 [SEQ ID NO: 9], CGEN-A11 [SEQ ID NO: 10], and CGEN-G2 [SEQ ID NO: 11] to specifically bind to recombinant Tie2 and interfere with the binding of Ang1, Ang2, or Ang4 to Tie2 was investigated using the BIACORE technology, measuring protein-protein interaction and binding affinity (Wendler et al 2005, Anal Bioanal Chem, 381: 1056-1064). The technology is based on surface plasmon resonance (SPR), an optical phenomenon that enables detection of unlabeled interactants in real time. […]
Peptide-protein interaction was analyzed using surface plasmon resonance. […] Solutions containing 10-50 μM of CGEN-G6 [SEQ ID NO: 6], CGEN-F9 [SEQ ID NO: 7], CGEN-C6 [SEQ ID NO: 9], CGEN-A11 [SEQ ID NO: 10], and CGEN-G2 [SEQ ID NO: 11] were injected into the sample chamber of the BIACORE device at a rate of 20 μl/min and the interaction was monitored using surface plasmon resonance. In addition, solutions containing 100-500 nM of Ang1, Ang2, and Ang4 proteins were injected alone or in combination with 10-50 μM of CGEN-G6 [SEQ ID NO: 6], CGEN-F9 [SEQ ID NO: 7], CGEN-C6 [SEQ ID NO: 9], CGEN-A11 [SEQ ID NO: 10], and CGEN-G2 [SEQ ID NO: 11] peptides at a constant ratio of 1:100 (Ang ligand to peptide) into the sample chamber of the BIACORE device at a rate of 20 μl/min and the interaction was monitored using surface plasmon resonance. […]

T1 sequence (Q02763 with tags, fused parts or gaps limits assumed): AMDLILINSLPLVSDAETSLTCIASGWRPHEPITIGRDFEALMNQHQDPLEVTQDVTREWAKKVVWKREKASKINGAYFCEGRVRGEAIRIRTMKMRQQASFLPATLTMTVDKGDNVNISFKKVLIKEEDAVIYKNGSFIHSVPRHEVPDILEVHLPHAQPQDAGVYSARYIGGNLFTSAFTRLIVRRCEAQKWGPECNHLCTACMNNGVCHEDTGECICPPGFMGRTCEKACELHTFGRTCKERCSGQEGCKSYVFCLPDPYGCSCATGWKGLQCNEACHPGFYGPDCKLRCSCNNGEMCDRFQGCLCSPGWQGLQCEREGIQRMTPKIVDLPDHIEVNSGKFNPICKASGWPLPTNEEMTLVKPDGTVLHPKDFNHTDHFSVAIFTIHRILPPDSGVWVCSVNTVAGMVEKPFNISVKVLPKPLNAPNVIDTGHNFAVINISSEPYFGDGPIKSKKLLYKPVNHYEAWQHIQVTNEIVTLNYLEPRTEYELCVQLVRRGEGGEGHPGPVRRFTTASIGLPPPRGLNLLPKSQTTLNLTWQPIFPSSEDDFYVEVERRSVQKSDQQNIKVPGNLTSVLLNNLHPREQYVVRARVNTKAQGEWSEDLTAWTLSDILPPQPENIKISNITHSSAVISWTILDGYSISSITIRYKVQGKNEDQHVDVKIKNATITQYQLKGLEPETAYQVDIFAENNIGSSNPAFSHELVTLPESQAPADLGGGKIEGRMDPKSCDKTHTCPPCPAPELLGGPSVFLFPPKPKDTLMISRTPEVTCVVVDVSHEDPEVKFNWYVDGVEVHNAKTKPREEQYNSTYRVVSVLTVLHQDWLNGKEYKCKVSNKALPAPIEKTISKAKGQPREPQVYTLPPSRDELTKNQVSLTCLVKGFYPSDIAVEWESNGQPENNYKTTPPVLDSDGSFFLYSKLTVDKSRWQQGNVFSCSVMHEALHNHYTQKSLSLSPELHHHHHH

In the case of `CC[C@H](C)[C@H](NC(=O)[C@H](C)NC(=O)[C@H](CCCNC(=N)N)NC(=O)[C@H](CCC(=O)O)NC(=O)[C@H](CC(C)C)NC(=O)[C@H](CCCCN)NC(=O)[C@H](CCCCN)NC(=O)[C@H](CC(C)C)NC(=O)[C@H](Cc1c[nH]c2ccccc12)NC(=O)[C@H](CCC(N)=O)NC(=O)[C@@H](NC(=O)[C@H](CC(N)=O)NC(=O)[C@H](CC(N)=O)NC(=O)[C@H](CCC(N)=O)NC(=O)[C@H](CC(C)C)NC(=O)[C@H](C)NC(=O)[C@H](CCC(N)=O)NC(=O)[C@H](CCC(=O)O)NC(=O)[C@H](CC(C)C)NC(=O)[C@H](CCC(N)=O)NC(=O)[C@H](CCCCN)NC(=O)[C@@H](NC(=O)[C@H](CCC(N)=O)NC(=O)[C@H](CCC(N)=O)NC(=O)[C@@H](NC(C)=O)[C@@H](C)O)C(C)C)[C@@H](C)O)C(=O)N[C@@H](CCCCN)C(=O)N[C@H](C(=O)N[C@H](C(=O)N[C@@H](CC(C)C)C(N)=O)[C@@H](C)CC)[C@@H](C)O` [CGEN-G2] (Ac-TQQVKQLEQALQNNTQWLKKLERAIKTIL-NH2), the “binding of peptide alone to immobilized Tie2” value is reported as “some non specific binding”.
